Experimental data as given in patent US7482379B2, “Propenoyl hydrazides” (priority 2004, dated 2009).
Peptide text beside a SMILES is read from it. * marks the point of attachment. AFC = O=c1cc(C(F)(F)F)c2ccc(N*)cc2o1

What was measured:
[1] = biological target: T1, Caspase-9 (Homo sapiens, UniProt P55211); assay: Caspase-9 progress curve inhibition assay; conditions: for k2 Caspase-9: second-order rate constant, Ac-LEHD-AFC substrate, Hepes buffer pH 7.0 with 0.7 M sodium citrate
T1 sequence (P55211 1-315 limits assumed): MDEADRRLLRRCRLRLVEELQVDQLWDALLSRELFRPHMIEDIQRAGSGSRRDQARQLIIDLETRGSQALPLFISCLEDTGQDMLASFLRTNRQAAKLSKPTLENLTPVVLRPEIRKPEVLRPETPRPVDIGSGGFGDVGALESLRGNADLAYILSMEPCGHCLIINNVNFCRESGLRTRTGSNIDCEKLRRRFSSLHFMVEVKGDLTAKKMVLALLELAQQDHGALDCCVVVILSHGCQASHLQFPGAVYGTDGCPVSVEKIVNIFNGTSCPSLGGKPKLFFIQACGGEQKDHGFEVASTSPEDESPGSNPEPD
T1 sequence (P55211 331-416 limits assumed): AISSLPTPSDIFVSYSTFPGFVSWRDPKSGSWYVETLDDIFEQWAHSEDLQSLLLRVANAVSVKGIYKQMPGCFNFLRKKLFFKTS
Procedure: Caspases-2, -3, -6, -7, -8, -9 and -10 were expressed in E. coli and purified in Guy Salvesen's laboratory at the Burnham Institute, La Jolla, Calif., according to the methods known in the art. Inhibition rates were determined by the progress curve method known in the art. This method is suitable for measuring irreversible inhibition rates with fast inhibitors, where the inhibitor, the substrate and the enzyme are incubated together and the rate of substrate hydrolysis is measured continuously. The rate of substrate hydrolysis in the presence of the inhibitor was monitored for 20 minutes. The progress curve of inhibition, where the product formation approaches an asymptote is described in the equation ln([P∞]−[P])=ln[P∞]−A[I]t where [P] and [P∞] are the product concentrations at t and t=∞ respectively, A is the apparent rate constant in the presence of the substrate. The apparent rate constants were determined from the slopes of plots of ln ([P∞]−[P]) versus time (t) in seconds as previously described, where A=slope/[I].
(§1) For competitive and irreversible inhibition, the apparent rate constant is converted to the second order rate constant k2 by taking into consideration the effect of the substrate concentration on the apparent rate constant. The second order rate constant is described as in the equation: k2=A*(1+[S]/KM)
Assay buffer is a 1:1 mixture of buffer (200 mM Hepes, 100 mM NaCl, 0.02% (w/v) CHAPS, sucrose 20% (w/v)) and 20 mM DTT solution in H2O at pH 7.0). The assay buffer was supplemented with 0.7 M sodium citrate. The enzyme was pre-activated for 10 min at 37° C. in the assay buffer.

[2] = biological target: T2, Caspase-2 (Homo sapiens, UniProt P42575); assay: Caspase-2 progress curve inhibition assay; conditions: second-order rate constant; Cbz-VDVAD-AFC substrate; Pipes buffer pH 7.2
T2 sequence (P42575 170-333 limits assumed): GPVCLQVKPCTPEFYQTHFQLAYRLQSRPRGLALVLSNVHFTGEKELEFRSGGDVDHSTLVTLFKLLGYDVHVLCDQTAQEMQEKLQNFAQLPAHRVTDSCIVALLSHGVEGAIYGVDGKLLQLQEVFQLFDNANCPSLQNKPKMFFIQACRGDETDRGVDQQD
T2 sequence (P42575 348-452 limits assumed): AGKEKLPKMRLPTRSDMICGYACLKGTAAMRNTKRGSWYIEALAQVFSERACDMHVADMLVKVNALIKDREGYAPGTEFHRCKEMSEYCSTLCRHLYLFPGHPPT
Procedure: Inhibition rates were determined by the progress curve method known in the art. This method is suitable for measuring irreversible inhibition rates with fast inhibitors, where the inhibitor, the substrate and the enzyme are incubated together and the rate of substrate hydrolysis is measured continuously. The rate of substrate hydrolysis in the presence of the inhibitor was monitored for 20 minutes. The progress curve of inhibition, where the product formation approaches an asymptote is described in the equation ln([P∞]−[P])=ln[P∞]−A[I]t where [P] and [P∞] are the product concentrations at t and t=∞ respectively, A is the apparent rate constant in the presence of the substrate. The apparent rate constants were determined from the slopes of plots of ln ([P∞]−[P]) versus time (t) in seconds as previously described, where A=slope/[I].
as §1
(§2) The concentration of the caspase-3 stock solution was 2 nM in the assay buffer. Assay buffer is a 1:1 mixture of caspase buffer (40 mM Pipes, 200 mM NaCl, 0.2% (w/v) CHAPS, sucrose 20% (w/v)) and 20 mM DTT solution in H2O at pH 7.2. The concentration of the substrate stock solution was 2 mM in DMSO. The enzyme was pre-activated for 10 min at 37° C. in the assay buffer. […] 50 μL of 2 nM enzyme stock solution (final concentration: 1 nM) was added to the mixture after 1 min and reading started immediately for 20 min at 37° C. Inhibition experiments were repeated in duplicate and standard deviations determined.
The inhibitor stock solution concentrations varied from 5×10^−3 M to 1×10^−4 M in DMSO.

[3] = biological target: T3, Caspase-3 (Homo sapiens, UniProt P42574); assay: Caspase-3 progress curve inhibition assay; conditions: second-order rate constant; Ac-DEVD-AMC substrate; Pipes buffer pH 7.2
T3 sequence (P42574 29-175 limits assumed): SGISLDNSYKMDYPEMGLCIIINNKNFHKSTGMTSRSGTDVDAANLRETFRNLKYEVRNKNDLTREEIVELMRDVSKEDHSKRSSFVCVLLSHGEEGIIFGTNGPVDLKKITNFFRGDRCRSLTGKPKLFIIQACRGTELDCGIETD
T3 sequence (P42574 176-277 limits assumed): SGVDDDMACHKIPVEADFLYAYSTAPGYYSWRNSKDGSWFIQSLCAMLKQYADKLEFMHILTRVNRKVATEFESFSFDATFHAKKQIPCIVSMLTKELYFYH
Procedure: Caspase-2, -3, -6, -7, -8, -9 and -10. […] Inhibition rates were determined by the progress curve method known in the art. This method is suitable for measuring irreversible inhibition rates with fast inhibitors, where the inhibitor, the substrate and the enzyme are incubated together and the rate of substrate hydrolysis is measured continuously. The rate of substrate hydrolysis in the presence of the inhibitor was monitored for 20 minutes. The progress curve of inhibition, where the product formation approaches an asymptote is described in the equation ln([P∞]−[P])=ln[P∞]−A[I]t where [P] and [P∞] are the product concentrations at t and t=∞ respectively, A is the apparent rate constant in the presence of the substrate. The apparent rate constants were determined from the slopes of plots of ln ([P∞]−[P]) versus time (t) in seconds as previously described, where A=slope/[I].
as §1, §2

[4] = biological target: T4, Caspase-6 (Homo sapiens, UniProt P55212); assay: Caspase-6 progress curve inhibition assay; conditions: second-order rate constant; Ac-DEVD-AMC substrate; Pipes buffer pH 7.2
T4 sequence (P55212 24-179 limits assumed): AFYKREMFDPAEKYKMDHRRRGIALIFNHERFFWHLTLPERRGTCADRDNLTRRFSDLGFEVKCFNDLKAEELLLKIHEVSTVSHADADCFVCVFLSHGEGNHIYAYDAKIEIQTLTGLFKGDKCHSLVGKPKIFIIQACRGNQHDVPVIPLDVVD
T4 sequence (P55212 194-293 limits assumed): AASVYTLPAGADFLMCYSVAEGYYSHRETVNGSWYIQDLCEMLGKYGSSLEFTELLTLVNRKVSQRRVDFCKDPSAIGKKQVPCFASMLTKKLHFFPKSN

[5] = biological target: T5, Caspase-7 (Homo sapiens, UniProt P55210); assay: Caspase-7 progress curve inhibition assay; conditions: second-order rate constant; Ac-DEVD-AMC substrate; Pipes buffer pH 7.2
T5 sequence (P55210 24-198 limits assumed): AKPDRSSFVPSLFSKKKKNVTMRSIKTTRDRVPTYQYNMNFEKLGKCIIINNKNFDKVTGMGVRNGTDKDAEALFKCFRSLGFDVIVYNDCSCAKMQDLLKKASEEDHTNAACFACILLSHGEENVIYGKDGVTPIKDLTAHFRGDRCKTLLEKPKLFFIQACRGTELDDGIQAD
T5 sequence (P55210 207-303 limits assumed): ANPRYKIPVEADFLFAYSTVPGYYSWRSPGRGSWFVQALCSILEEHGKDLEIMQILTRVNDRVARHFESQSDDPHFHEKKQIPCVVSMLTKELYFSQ

[6] = biological target: Caspase-8 (Homo sapiens, UniProt Q14790); assay: Caspase-8 progress curve inhibition assay; conditions: second-order rate constant; Ac-DEVD-AMC substrate; Pipes buffer pH 7.2
Chain of Caspase-8 (Q14790 217-374 limits assumed): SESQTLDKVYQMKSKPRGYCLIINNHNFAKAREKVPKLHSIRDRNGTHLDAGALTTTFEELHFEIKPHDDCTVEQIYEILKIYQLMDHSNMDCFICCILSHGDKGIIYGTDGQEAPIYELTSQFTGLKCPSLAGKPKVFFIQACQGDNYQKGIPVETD
Chain of Caspase-8 (Q14790 385-479 limits assumed): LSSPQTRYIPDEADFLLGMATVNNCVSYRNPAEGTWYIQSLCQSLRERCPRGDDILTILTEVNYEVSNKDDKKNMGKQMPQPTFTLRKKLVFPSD

[7] = biological target: T6, Caspase-10 (Homo sapiens, UniProt Q92851); assay: Caspase-10 progress curve inhibition assay; conditions: second-order rate constant; Ac-DEVD-AMC substrate; Hepes/PEG buffer pH 7.0
T6 sequence (Q92851 220-415 limits assumed): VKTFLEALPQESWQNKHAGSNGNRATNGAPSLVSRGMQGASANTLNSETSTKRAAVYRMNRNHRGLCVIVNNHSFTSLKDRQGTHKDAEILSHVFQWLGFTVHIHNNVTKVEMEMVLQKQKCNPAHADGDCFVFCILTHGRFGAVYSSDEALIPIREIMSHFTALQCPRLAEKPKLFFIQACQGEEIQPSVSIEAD
T6 sequence (Q92851 416-521 limits assumed): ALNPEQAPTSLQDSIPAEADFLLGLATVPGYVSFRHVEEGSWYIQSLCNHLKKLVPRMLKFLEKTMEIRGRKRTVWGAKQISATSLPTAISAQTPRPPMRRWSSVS
Procedure: Caspase-2, -3, -6, -7, -8, -9 and -10. Caspases-2, -3, -6, -7, -8, -9 and -10 were expressed in E. coli and purified in Guy Salvesen's laboratory at the Burnham Institute, La Jolla, Calif., according to the methods known in the art. Inhibition rates were determined by the progress curve method known in the art. This method is suitable for measuring irreversible inhibition rates with fast inhibitors, where the inhibitor, the substrate and the enzyme are incubated together and the rate of substrate hydrolysis is measured continuously. The rate of substrate hydrolysis in the presence of the inhibitor was monitored for 20 minutes. The progress curve of inhibition, where the product formation approaches an asymptote is described in the equation ln([P∞]−[P])=ln[P∞]−A[I]t where [P] and [P∞] are the product concentrations at t and t=∞ respectively, A is the apparent rate constant in the presence of the substrate. The apparent rate constants were determined from the slopes of plots of ln ([P∞]−[P]) versus time (t) in seconds as previously described, where A=slope/[I].
as §1
Assay buffer is a 1:1 mixture of buffer (200 mM Hepes, 0.2% (w/v) CHAPS, PEG 20% (w/v)) and 20 mM DTT solution in H2O at pH 7.0). The enzyme was pre-activated for 10 min at 25° C. in the assay buffer.

| SMILES | Km ([1]; read-out: KM with caspase-9, substrate Ac-LEHD-AFC) [µM] | k2 Caspase-2 [2] [M⁻¹ s⁻¹] | k2 Caspase-3 [3] | k2 Caspase-6 [4] | k2 Caspase-7 [5] | k2 Caspase-8 [6] | k2 Caspase-9 [1] | k2 Caspase-10 [7] |
| --- | --- | --- | --- | --- | --- | --- | --- | --- |
| CC(=O)N[C@@H](CC(C)C)C(=O)N[C@@H](CCC(=O)O)C(=O)N[C@@H](Cc1cnc[nH]1)C(=O)N[C@@H](CC(=O)O)C(=O)Nc1ccc2c(C(F)(F)F)cc(=O)oc2c1 [Ac-LEHD-AFC, reference compound] (Ac-LEHD-{AFC}) | 114 | – | – | – | – | – | – | – |
| CC[C@H](C)[C@H](NC(=O)OCc1ccccc1)C(=O)N[C@@H](CCC(=O)O)C(=O)N[C@H](C(=O)NN(CC(=O)O)C(=O)/C=C/C(=O)N(Cc1ccccc1)Cc1ccccc1)[C@@H](C)O (relative stereo) [Cbz-Ile-Glu-Thr-AAsp-CH═CH—CON(CH2Ph)2, N^2—(N-Benzyloxycarbonylisoleucylglutamylthreonyl)-N^1-carboxylmethyl-N^1-trans-(3-dibenzylcarbamoylpropenoyl)hydrazine] | – | 76 | 9,570 M^−1s^−1 | 83,900 M^−1s^−1 | 1,140 M^−1s^−1 | 39,500 M^−1s^−1 | 1,930 M^−1s^−1 | 7,930 M^−1s^−1 |
| CC[C@H](C)[C@H](NC(=O)OCc1ccccc1)C(=O)N[C@@H](CCC(=O)O)C(=O)N[C@H](C(=O)NN(CC(=O)O)C(=O)/C=C/C(=O)N(C)CCc1ccccc1)[C@@H](C)O (relative stereo) [N^2—(N-Benzyloxycarbonylisoleucylglutamylthreonyl)-N^1-carboxylmethyl-N^1-trans-(3-methylphenylethylcarbamoylpropenoyl)hydrazine] | – | 38 | 5,480 M^−1s^−1 | – | 1,020 M^−1s^−1 | 60,500 M^−1s^−1 | 760 M⁻¹ s⁻¹ | 8,770 M^−1s^−1 |
| CC(C)[C@H](NC(=O)[C@H](CCC(=O)O)NC(=O)[C@H](CC(=O)O)NC(=O)OCc1ccccc1)C(=O)NN(CC(=O)O)C(=O)C=CC(=O)N(Cc1cccc2ccccc12)Cc1cccc2ccccc12 | – | 410 | 5,620,000 M^−1s^−1 | 29,700 M^−1s^−1 | 875,000 M^−1s^−1 | 9,460 M^−1s^−1 | 150 M⁻¹ s⁻¹ | 32,500 M^−1s^−1 |
| CC[C@H](C)[C@H](NC(=O)OCc1ccccc1)C(=O)N[C@@H](CCC(=O)O)C(=O)N[C@H](C(=O)NN(CC(=O)O)C(=O)/C=C/C(=O)NCCc1ccccc1)[C@@H](C)O (relative stereo) [Cbz-Ile-Glu-Thr-AAsp-CH═CH—CONHCH2CH2Ph, N^2—(N-BenzyloxycarbonylisoleucylglutamyIthreonyl)-N^1-carboxylmethyl-N^1-trans-(3-phenyethylcarbamoylpropenoyl)hydrazine] | – | 30 | 4,750 M^−1s^−1 | 18,700 M^−1s^−1 | 440 M⁻¹ s⁻¹ | 71,000 M^−1s^−1 | 615 M⁻¹ s⁻¹ | 8,290 M^−1s^−1 |
| CC(C)[C@H](NC(=O)[C@H](CCC(=O)O)NC(=O)[C@H](CC(=O)O)NC(=O)OCc1ccccc1)C(=O)NN(CC(=O)O)C(=O)/C=C/C(=O)N(C)CCc1ccccc1 (relative stereo) [N^2—(N-Benzyloxycarbonylaspartylglutamylvalyl)-N^1-carboxymethyl-N^1-trans-(3-phenethylmethylcarbamoylpropenoyl)hydrazine] | – | 320 | 1,180,000 M^−1s^−1 | 4,000 M^−1s^−1 | 172,000 M^−1s^−1 | 31,900 M^−1s^−1 | 425 M⁻¹ s⁻¹ | 9,570 M^−1s^−1 |
| CCOC(=O)/C=C/C(=O)N(CC(=O)O)NC(=O)[C@@H](NC(=O)OCc1ccccc1)C(C)C (stereo in doubt) [Cbz-Val-AAsp-CH═CH—COOEt, N^2—(N-Benzyloxycarbonylvalyl)-N^1-carboxymethyl-N^1-trans-(3-ethoxycarbonylpropenoyl)hydrazine] | – | – | 8,000 M^−1s^−1 | – | 2,680 M^−1s^−1 | – | 5,240 M^−1s^−1 | 389 M⁻¹ s⁻¹ |
| CC(C)[C@H](NC(=O)OCc1ccccc1)C(=O)NN(CC(=O)O)C(=O)/C=C/c1ccc(Cl)cc1 (stereo in doubt) [Cbz-Val-AAsp-CH═CH-4-Cl—Ph, N^2—(N-Benzyloxycarbonylvalyl)-N^1-carboxymethyl-N^1-trans-(3-(4-chlorophenyl)propenoyl)hydrazine] | – | – | – | – | – | – | 19 M⁻¹ s⁻¹ | – |
| CC[C@H](C)[C@H](NC(=O)OCc1ccccc1)C(=O)N[C@@H](CCC(=O)O)C(=O)N[C@H](C(=O)NN(CC(=O)O)C(=O)/C=C/C(=O)Nc1ccccc1)[C@@H](C)O (relative stereo) [Cbz-Ile-Glu-Thr-AAsp-CH═CH—CONHPh, N^2—(N-Benzyloxycarbonylisoleucylglutamylthreonyl)-N^1-carboxylmethyl-N^1-trans-(3-phenylcarbamoylpropenoyl)hydrazine] | – | 365 | 7,030 M^−1s^−1 | 99,200 M^−1s^−1 | 920 M⁻¹ s⁻¹ | 245,000 M^−1s^−1 | 940 M⁻¹ s⁻¹ | 9,210 M^−1s^−1 |
| CC(C)[C@H](NC(=O)OCc1ccccc1)C(=O)NN(CC(=O)O)C(=O)/C=C/C(=O)NCc1ccccc1 (stereo in doubt) [Cbz-Val-AAsp-CH═CH—CONHCH2Ph, N^1-trans-(3-Benzylcarbamoylpropenoyl)-N^2—(N-benzyloxycarbonylvalyl)-N^1-carboxymethylhydrazine] | – | – | 185 M⁻¹ s⁻¹ | – | 60 M⁻¹ s⁻¹ | – | 20 M⁻¹ s⁻¹ | – |
| CC(C)[C@H](NC(=O)OCc1ccccc1)C(=O)NN(CC(=O)O)C(=O)/C=C\Cl (stereo in doubt) [Cbz-Val-AAsp-CH═CH—Cl, N^2—(N-Benzyloxycarbonylvalyl)-N^1-carboxymethyl-N^1-cis-(3-chloropropenoyl)hydrazine] | – | – | – | – | – | – | 15 M⁻¹ s⁻¹ | – |
| CCCCNC(=O)/C=C/C(=O)N(CC(=O)O)NC(=O)[C@@H](NC(=O)OCc1ccccc1)C(C)C (stereo in doubt) [Cbz-Val-AAsp-CH═CH—CONH-nBu, N^2—(N-Benzyloxycarbonylvalyl)-N^1-trans-(3-butylcarbamoylpropenoyl)-N^1-carboxymethylhydrazine] | – | – | 184 M⁻¹ s⁻¹ | – | 55 M⁻¹ s⁻¹ | – | 32 M⁻¹ s⁻¹ | – |
